Measured values as given in ChEMBL document CHEMBL4507289, “Data for DCP probe GSM1” (2021).

Legend:
[1] = target: Sigma non-opioid intracellular receptor 1 (Homo sapiens) (UniProt Q99720); settings: Compound concentration 10.0 uM
[2] = target: Tyrosine-protein kinase Lyn (Homo sapiens) (UniProt P07948); settings: Compound concentration 1000.0 nM
[3] = target: Mitogen-activated protein kinase 3 (Homo sapiens) (UniProt P27361); settings: Compound concentration 1000.0 nM
[4] = target: Ribosomal protein S6 kinase alpha-5 (Homo sapiens) (UniProt O75582); settings: Compound concentration 1000.0 nM
[5] = target: Serine/threonine-protein kinase Nek4 (Homo sapiens) (UniProt P51957); settings: Compound concentration 1000.0 nM
[6] = target: Casein kinase I isoform alpha-like (Homo sapiens) (UniProt Q8N752); settings: Compound concentration 1000.0 nM
[7] = target: D(4) dopamine receptor (Homo sapiens) (UniProt P21917); settings: Compound concentration 10.0 uM
[8] = target: Ephrin type-B receptor 4 (Homo sapiens) (UniProt P54760); settings: Compound concentration 1000.0 nM
[9] = test system: Epidermal growth factor receptor (Homo sapiens), P00533 [UNDEFINED MUTATION]; settings: Compound concentration 1000.0 nM
[10] = test system: Proto-oncogene tyrosine-protein kinase receptor Ret (Homo sapiens), P07949 [V804L]; settings: Compound concentration 1000.0 nM
Proto-oncogene tyrosine-protein kinase receptor Ret (Homo sapiens), P07949 [V804L], sequence (P07949 whole entry V804L): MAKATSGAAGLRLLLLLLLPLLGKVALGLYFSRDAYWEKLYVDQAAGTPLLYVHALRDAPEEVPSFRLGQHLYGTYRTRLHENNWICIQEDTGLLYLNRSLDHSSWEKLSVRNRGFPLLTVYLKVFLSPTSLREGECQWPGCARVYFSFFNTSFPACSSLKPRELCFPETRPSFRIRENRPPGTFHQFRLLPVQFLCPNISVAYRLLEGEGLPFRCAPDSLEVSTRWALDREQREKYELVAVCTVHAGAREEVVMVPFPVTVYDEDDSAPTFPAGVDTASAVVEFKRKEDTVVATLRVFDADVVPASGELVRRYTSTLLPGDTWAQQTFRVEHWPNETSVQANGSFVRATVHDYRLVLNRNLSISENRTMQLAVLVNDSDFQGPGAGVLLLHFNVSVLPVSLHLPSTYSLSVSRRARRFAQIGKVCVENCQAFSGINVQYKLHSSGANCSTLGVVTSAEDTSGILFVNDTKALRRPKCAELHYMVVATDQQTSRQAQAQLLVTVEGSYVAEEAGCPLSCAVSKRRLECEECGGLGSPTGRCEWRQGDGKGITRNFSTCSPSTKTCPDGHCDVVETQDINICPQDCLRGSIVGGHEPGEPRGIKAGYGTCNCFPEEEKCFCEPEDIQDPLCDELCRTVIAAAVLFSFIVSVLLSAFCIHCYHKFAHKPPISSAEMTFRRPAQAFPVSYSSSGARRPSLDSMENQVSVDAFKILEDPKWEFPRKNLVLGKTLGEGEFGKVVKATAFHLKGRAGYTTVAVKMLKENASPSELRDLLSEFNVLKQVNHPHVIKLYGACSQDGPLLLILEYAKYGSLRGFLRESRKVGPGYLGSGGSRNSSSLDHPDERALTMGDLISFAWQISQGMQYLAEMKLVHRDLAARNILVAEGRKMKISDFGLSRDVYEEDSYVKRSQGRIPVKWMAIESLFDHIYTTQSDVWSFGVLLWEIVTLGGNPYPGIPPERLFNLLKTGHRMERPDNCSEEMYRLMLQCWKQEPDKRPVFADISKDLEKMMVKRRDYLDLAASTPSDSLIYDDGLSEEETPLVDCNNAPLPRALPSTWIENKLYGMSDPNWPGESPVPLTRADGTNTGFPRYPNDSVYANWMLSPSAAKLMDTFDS

[11] = target: Dual specificity tyrosine-phosphorylation-regulated kinase 1B (Homo sapiens) (UniProt Q9Y463); settings: Compound concentration 1000.0 nM
[12] = test system: Receptor-type tyrosine-protein kinase FLT3 (Homo sapiens), P36888 [D835Y]; settings: Compound concentration 1000.0 nM
[13] = target: Serine/threonine-protein kinase RIO2 (Homo sapiens) (UniProt Q9BVS4); settings: Compound concentration 1000.0 nM
[14] = target: Mitogen-activated protein kinase kinase kinase kinase 2 (Homo sapiens) (UniProt Q12851); settings: Compound concentration 1000.0 nM
[15] = target: D(2) dopamine receptor (Homo sapiens) (UniProt P14416); settings: Compound concentration 10.0 uM
D(2) dopamine receptor (Homo sapiens), sequence (P14416 whole entry): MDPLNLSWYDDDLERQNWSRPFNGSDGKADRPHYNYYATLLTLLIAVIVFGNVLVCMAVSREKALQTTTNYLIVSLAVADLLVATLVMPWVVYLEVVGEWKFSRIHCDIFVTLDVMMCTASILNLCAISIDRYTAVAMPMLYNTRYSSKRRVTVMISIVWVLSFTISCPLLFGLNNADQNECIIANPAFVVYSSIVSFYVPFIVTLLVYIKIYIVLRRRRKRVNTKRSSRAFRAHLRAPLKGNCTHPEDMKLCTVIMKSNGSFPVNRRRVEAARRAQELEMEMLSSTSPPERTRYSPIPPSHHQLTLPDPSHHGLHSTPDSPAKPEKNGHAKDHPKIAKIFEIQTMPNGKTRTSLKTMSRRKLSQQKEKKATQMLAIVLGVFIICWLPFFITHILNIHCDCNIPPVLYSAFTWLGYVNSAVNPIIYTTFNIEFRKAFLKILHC

[16] = target: Testis-specific serine/threonine-protein kinase 1 (Homo sapiens) (UniProt Q9BXA7); settings: Compound concentration 1000.0 nM
[17] = test system: Epidermal growth factor receptor (Homo sapiens), P00533 [G719S]; settings: Compound concentration 1000.0 nM
[18] = target: Histamine H3 receptor (Homo sapiens) (UniProt Q9Y5N1); settings: Compound concentration 10.0 uM
[19] = target: Serine/threonine-protein kinase ULK2 (Homo sapiens) (UniProt Q8IYT8); settings: Compound concentration 1000.0 nM
[20] = target: Casein kinase II subunit alpha (Homo sapiens) (UniProt P68400); settings: Compound concentration 1000.0 nM
[21] = target: Serine/threonine-protein kinase DCLK1 (Homo sapiens) (UniProt O15075); settings: Compound concentration 1000.0 nM
[22] = target: Protein kinase C epsilon type (Homo sapiens) (UniProt Q02156); settings: Compound concentration 1000.0 nM
Protein kinase C epsilon type (Homo sapiens), sequence (Q02156 whole entry): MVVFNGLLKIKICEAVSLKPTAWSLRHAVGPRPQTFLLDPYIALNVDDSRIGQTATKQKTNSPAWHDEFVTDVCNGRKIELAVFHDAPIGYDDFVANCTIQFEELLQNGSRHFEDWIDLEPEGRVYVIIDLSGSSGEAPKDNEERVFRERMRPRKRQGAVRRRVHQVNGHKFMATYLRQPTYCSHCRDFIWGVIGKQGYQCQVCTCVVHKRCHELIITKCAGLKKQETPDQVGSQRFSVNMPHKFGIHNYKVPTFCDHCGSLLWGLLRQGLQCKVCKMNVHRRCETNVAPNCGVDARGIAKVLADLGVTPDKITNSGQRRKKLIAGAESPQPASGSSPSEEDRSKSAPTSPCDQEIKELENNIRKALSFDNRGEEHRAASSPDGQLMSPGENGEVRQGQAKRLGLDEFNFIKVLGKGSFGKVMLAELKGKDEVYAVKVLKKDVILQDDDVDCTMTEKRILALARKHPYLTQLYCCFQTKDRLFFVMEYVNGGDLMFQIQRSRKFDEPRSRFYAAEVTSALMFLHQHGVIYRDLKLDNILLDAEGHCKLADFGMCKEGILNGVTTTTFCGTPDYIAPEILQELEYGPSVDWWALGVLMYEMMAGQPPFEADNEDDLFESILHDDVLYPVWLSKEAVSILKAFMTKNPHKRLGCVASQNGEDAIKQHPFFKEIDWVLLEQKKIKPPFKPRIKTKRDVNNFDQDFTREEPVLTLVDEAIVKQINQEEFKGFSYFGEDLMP

[23] = target: Serine/threonine-protein kinase 32B (Homo sapiens) (UniProt Q9NY57); settings: Compound concentration 1000.0 nM
[24] = target: Inhibitor of nuclear factor kappa-B kinase subunit alpha (Homo sapiens) (UniProt O15111); settings: Compound concentration 1000.0 nM
[25] = target: Cyclin-dependent kinase 4 (Homo sapiens) (UniProt P11802); settings: Compound concentration 1000.0 nM
[26] = target: Phosphatidylinositol 3-kinase C2 domain-containing subunit gamma (Homo sapiens) (UniProt O75747); settings: Compound concentration 1000.0 nM
[27] = target: Ephrin type-A receptor 4 (Homo sapiens) (UniProt P54764); settings: Compound concentration 1000.0 nM
[28] = target: Mitogen-activated protein kinase kinase kinase 3 (Homo sapiens) (UniProt Q99759); settings: Compound concentration 1000.0 nM
[29] = target: Aurora kinase B (Homo sapiens) (UniProt Q96GD4); settings: Compound concentration 1000.0 nM
Aurora kinase B (Homo sapiens), sequence (Q96GD4 whole entry): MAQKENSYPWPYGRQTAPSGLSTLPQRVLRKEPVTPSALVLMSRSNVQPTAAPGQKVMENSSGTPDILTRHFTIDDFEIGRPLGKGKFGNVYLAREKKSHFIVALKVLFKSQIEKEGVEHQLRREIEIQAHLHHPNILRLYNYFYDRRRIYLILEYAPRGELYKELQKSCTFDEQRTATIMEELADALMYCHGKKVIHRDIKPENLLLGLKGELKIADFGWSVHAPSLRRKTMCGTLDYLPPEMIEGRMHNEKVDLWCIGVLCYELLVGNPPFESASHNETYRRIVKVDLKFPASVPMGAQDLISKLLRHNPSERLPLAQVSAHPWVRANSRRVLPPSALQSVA

[30] = target: Alpha-2C adrenergic receptor (Homo sapiens) (UniProt P18825); settings: Compound concentration 10.0 uM
[31] = target: Serine/threonine-protein kinase Chk2 (Homo sapiens) (UniProt O96017); settings: Compound concentration 1000.0 nM
[32] = target: Casein kinase I isoform epsilon (Homo sapiens) (UniProt P49674); settings: Compound concentration 1000.0 nM
[33] = target: Macrophage-stimulating protein receptor (Homo sapiens) (UniProt Q04912); settings: Compound concentration 1000.0 nM
[34] = target: Dual specificity mitogen-activated protein kinase kinase 1 (Homo sapiens) (UniProt Q02750); settings: Compound concentration 1000.0 nM
[35] = target: Non-receptor tyrosine-protein kinase TNK1 (Homo sapiens) (UniProt Q13470); settings: Compound concentration 1000.0 nM
[36] = target: Mitogen-activated protein kinase kinase kinase 19 (Homo sapiens) (UniProt Q56UN5); settings: Compound concentration 1000.0 nM
[37] = target: RAF proto-oncogene serine/threonine-protein kinase (Homo sapiens) (UniProt P04049); settings: Compound concentration 1000.0 nM
[38] = target: Death-associated protein kinase 1 (Homo sapiens) (UniProt P53355); settings: Compound concentration 1000.0 nM
Death-associated protein kinase 1 (Homo sapiens), sequence (P53355 whole entry, looked up): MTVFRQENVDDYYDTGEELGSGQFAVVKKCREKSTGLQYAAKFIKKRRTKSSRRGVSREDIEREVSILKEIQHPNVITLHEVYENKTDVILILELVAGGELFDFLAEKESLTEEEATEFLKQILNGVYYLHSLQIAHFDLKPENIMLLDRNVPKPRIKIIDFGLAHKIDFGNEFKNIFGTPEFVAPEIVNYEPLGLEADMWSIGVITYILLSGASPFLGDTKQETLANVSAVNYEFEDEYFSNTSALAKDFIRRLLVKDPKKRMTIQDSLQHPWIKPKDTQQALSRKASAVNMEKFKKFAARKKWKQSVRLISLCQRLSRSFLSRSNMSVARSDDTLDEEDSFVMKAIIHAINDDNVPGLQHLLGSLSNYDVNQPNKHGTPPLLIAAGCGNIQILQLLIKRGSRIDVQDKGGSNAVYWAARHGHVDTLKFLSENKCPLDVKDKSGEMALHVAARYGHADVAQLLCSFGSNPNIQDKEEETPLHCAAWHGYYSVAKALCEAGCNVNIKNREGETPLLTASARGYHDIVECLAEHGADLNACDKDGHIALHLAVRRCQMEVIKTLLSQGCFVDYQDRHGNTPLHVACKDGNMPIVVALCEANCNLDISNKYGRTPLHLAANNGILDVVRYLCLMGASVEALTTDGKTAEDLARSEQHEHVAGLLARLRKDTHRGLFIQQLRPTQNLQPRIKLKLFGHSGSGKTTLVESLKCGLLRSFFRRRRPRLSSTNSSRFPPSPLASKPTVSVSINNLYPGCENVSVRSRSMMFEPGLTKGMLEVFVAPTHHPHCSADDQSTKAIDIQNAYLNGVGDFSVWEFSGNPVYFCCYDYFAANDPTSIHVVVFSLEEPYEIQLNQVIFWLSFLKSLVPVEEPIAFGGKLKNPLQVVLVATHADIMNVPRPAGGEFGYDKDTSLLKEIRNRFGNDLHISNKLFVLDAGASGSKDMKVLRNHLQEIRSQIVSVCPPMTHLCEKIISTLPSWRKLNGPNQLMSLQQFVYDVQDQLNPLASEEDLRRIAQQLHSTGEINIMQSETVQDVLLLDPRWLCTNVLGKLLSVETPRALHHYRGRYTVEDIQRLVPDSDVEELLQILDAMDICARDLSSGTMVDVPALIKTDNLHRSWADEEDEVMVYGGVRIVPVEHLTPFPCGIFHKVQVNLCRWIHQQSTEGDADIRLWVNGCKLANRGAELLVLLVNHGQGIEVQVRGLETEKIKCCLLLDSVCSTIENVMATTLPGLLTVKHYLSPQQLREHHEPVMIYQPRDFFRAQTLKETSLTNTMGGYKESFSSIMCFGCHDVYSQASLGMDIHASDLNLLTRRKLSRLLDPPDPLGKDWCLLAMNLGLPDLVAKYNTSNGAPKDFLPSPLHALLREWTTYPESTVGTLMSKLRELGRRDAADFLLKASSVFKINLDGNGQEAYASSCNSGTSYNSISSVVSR

[39] = target: Insulin-like growth factor 1 receptor (Homo sapiens) (UniProt P08069); settings: Compound concentration 1000.0 nM
[40] = target: Ribosomal protein S6 kinase alpha-6 (Homo sapiens) (UniProt Q9UK32); settings: Compound concentration 1000.0 nM
[41] = target: Serine/threonine-protein kinase haspin (Homo sapiens) (UniProt Q8TF76); settings: Compound concentration 1000.0 nM
Serine/threonine-protein kinase haspin (Homo sapiens), sequence (Q8TF76 whole entry): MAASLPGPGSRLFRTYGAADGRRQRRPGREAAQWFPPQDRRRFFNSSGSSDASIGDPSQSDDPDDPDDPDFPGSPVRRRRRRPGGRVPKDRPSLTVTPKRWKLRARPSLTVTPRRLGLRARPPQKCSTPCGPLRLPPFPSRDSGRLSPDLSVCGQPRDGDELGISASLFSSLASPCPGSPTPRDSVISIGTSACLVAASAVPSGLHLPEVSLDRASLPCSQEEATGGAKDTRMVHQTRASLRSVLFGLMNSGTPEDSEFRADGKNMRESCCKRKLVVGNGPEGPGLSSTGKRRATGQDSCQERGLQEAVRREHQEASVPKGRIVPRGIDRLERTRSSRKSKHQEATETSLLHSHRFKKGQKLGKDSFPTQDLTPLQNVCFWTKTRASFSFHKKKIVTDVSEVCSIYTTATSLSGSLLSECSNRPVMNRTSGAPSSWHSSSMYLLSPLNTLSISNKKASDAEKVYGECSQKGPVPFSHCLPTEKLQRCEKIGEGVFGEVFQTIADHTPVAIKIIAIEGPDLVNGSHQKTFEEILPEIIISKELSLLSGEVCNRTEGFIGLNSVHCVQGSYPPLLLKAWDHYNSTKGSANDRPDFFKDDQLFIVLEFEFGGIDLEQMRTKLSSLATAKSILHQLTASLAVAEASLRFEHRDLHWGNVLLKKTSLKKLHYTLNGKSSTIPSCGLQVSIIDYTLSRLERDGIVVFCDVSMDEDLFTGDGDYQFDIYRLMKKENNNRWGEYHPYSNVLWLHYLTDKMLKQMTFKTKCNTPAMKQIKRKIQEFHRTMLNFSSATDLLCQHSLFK

[42] = target: Muscle, skeletal receptor tyrosine-protein kinase (Homo sapiens) (UniProt O15146); settings: Compound concentration 1000.0 nM
[43] = target: Casein kinase I isoform gamma-1 (Homo sapiens) (UniProt Q9HCP0); settings: Compound concentration 1000.0 nM
[44] = target: Serine/threonine-protein kinase 24 (Homo sapiens) (UniProt Q9Y6E0); settings: Compound concentration 1000.0 nM
[45] = target: Tyrosine-protein kinase receptor UFO (Homo sapiens) (UniProt P30530); settings: Compound concentration 1000.0 nM

SMILES: COc1cc(-c2cn([C@H]3CCc4ccccc4N(CC(F)(F)F)C3=O)nn2)ccc1-n1ccc(C)n1
- inhibition [1]: 23.2%
- residual activity [2]: 100%
- residual activity [3]: 100%
- residual activity [4]: 71%
- residual activity [5]: 100%
- residual activity [6]: 100%
- inhibition [7]: 52.4%
- residual activity [8]: 92%
- residual activity [9]: 100%
- residual activity [10]: 100%
- residual activity [11]: 100%
- residual activity [12]: 92%
- residual activity [13]: 96%
- residual activity [14]: 80%
- inhibition [15]: 7.85%
- residual activity [16]: 83%
- residual activity [17]: 100%
- inhibition [18]: 20.9%
- residual activity [19]: 88%
- residual activity [20]: 81%
- residual activity [21]: 100%
- residual activity [22]: 100%
- residual activity [23]: 85%
- residual activity [24]: 98%
- residual activity [25]: 53%
- residual activity [26]: 65%
- residual activity [27]: 92%
- residual activity [28]: 88%
- residual activity [29]: 89%
- inhibition [30]: 9.04%
- residual activity [31]: 100%
- residual activity [32]: 100%
- residual activity [33]: 96%
- residual activity [34]: 100%
- residual activity [35]: 100%
- residual activity [36]: 95%
- residual activity [37]: 98%
- residual activity [38]: 79%
- residual activity [39]: 100%
- residual activity [40]: 81%
- residual activity [41]: 83%
- residual activity [42]: 99%
- residual activity [43]: 77%
- residual activity [44]: 97%
- residual activity [45]: 93%

SMILES: COc1cc(-c2cn([C@H]3CCc4c(F)cccc4N(CC(F)(F)F)C3=O)nn2)ccc1-n1cnc(C)c1
- inhibition [1]: 26.6%
- residual activity [2]: 100%
- residual activity [3]: 100%
- residual activity [4]: 73%
- residual activity [5]: 100%
- residual activity [6]: 100%
- inhibition [7]: -7.76%
- residual activity [8]: 100%
- residual activity [9]: 0%
- residual activity [10]: 100%
- residual activity [11]: 100%
- residual activity [12]: 86%
- residual activity [13]: 100%
- residual activity [14]: 100%
- inhibition [15]: 31.2%
- residual activity [16]: 100%
- residual activity [17]: 90%
- inhibition [18]: 23.3%
- residual activity [19]: 100%
- residual activity [20]: 100%
- residual activity [21]: 100%
- residual activity [22]: 100%
- residual activity [23]: 100%
- residual activity [24]: 100%
- residual activity [25]: 88%
- residual activity [26]: 72%
- residual activity [27]: 100%
- residual activity [28]: 100%
- residual activity [29]: 100%
- inhibition [30]: 38.3%
- residual activity [31]: 100%
- residual activity [32]: 80%
- residual activity [33]: 100%
- residual activity [34]: 100%
- residual activity [35]: 100%
- residual activity [36]: 100%
- residual activity [37]: 100%
- residual activity [38]: 99%
- residual activity [39]: 100%
- residual activity [40]: 82%
- residual activity [41]: 87%
- residual activity [42]: 100%
- residual activity [43]: 86%
- residual activity [44]: 100%
- residual activity [45]: 98%
